Results published in patent US20230404988A1, “PROSTAGLANDIN RECEPTOR AGONISTS FOR USE IN THE TREATMENT OF A CORONAVIRUS INFECTION SUCH AS COVID-19” (priority 2020, published 2023).

Key:
[1] = test system: SARS-CoV-2; assay type: cell-based; conditions: human primary cells from airways biopsies infected with SARS-CoV-2 (MOI 0.001), 10 μM, day 2 post-infection, vs non-treated cells (FIG. 1)
[2] = test system: SARS-CoV-2; assay type: cell-based; conditions: cells infected with SARS-CoV-2 (Example 4)
[3] = test system: ACE2; assay: ACE2 expression in A549 cells (RT-PCR/SYBR green PCR, immunoblot); assay type: cell-based, human; conditions: incubation of 3 h to 24 h
Experimental: Human epithelial NSLC cell lines A549 were purchased from ATCC (catalogue number: ATCC CCL-185, American Type Culture Collection (ATCC), Manassas, VA). A549 cells were maintained in DMEM containing 10% fetal bovine serum (FBS), 4 mM GlutaMax (Thermo Scientific, Waltham, MA), 500 μg/mL Normocin (InvivoGen, San Diego, CA), 100 units/mL penicillin, and […] streptomycin (Thermo Scientific).
(§1) Gene downregulation of ACE2 has been evaluated with by RT-PCR and SYBR green PCR analyses. Total RNA was extracted from the cells or tissues and purified with the TRIzol reagent according to the manufacturer's protocol (Invitrogen). RNA was reverse transcribed by SuperScript® III reverse transcriptase (Invitrogen). The genes were amplified by with specific primers designed using BLAST alignment. Three housekeeping gene, GAPDH, (3-actin gene, and rare PBGD (porphobilinogen deaminase) gene were combined for normalization. Relative expression levels have been evaluated with the parameter of (ΔCt) of different human cell lines and human GNB cells after treatment with EP2, EP4 or EP2/EP4 agonists at a dose response concentration varying from 10E-2 to 10E2 fold of their respective EC50 of binding activity on each relevant EP receptor.
(§2) Immunoblot analysis on A549 cells treated with different EP2 and/or EP4 agonists doses ranging from 10E-2 to 10E2 fold of their respective binding EC50 is performed by lysing cells as described by Jia et al. (J. Virol., 2005, 79(23), 14614-14621).

[4] = test system: ACE2; assay: ACE2 expression in human primary ciliated cells obtained by gentle nasal brushing (RT-PCR/SYBR green PCR, immunoblot); assay type: cell-based; conditions: GNC cells, incubation of 3 h to 24 h
Experimental: Human primary ciliated cells obtained by gentle nasal brushing cells (GNBC cells) are collected from different patient sources, as described by Veit et al. (Nat. Med., 2018, 24(11), 1732-1742). Ciliogenesis is performed on cells plated on to poly-lysine-coated coverslips in 3.5-cm plates at 0.4×10^6 cells per well, allowed to attach for 24 hr, and then serum starved for 48 hr.
as §1, §2

[5] = test system: UREC cells; assay: Microarray transcriptome analysis of UREC cells (Affymetrix Human ClariomD, Reactome/GO analysis); assay type: cell-based
Experimental: Cell Culture Immortalized temperature-sensitive URECs are maintained and resuspended in complete RCGM (RCGM medium (0.5% FBS), 1.5% (v/v) certified FBS). Cells were seeded at 116,000 cells/well (350 k cells/cm 2) in 200 μl total volume of complete RCGM medium. Seed in triplicates per each experimental condition. Incubate at 39° C. to stop proliferation for 72 hours. After 72 hrs of cell growth, remove complete RCGM media. Replace with fresh complete RCGM media (2% FBS) containing the drug (at either 0.2, 2, or 10 μM) or vehicle control (media alone or 0.04% DMSO) at the appropriate concentration.
RNA Extraction. Extract RNA using RNeasy Micro Kit (Qiagene) using supplier's procedure. In short, disrupt the cells by adding QIAzol Lysis Reagent. Scratch each well with the pipette tip and pipette to mix. Homogenize the cells by vortexing. Adjust sample volume. Homogenize by passing the lysate through a 20-gauge needle. Precipitate proteins using chloroform solution. Load into a RNeasy MinElute column. Wash and elute following supplier's procedure. Prepare sample at a concentration of 5 ng/μl for quality control and measure by spectrometry (Xpose, Trinean) and confirming RNA as a RIN using capillary electrophoresis (TapeStation, Agilent). The average yield of extraction is 0.4±0.2 μg/100,000 cells (1 well of a 96-well plate).
Microarray data analysis. Affymetrix Human ClariomD were used following manufacturers protocols. Affymetrix Human ClariomD data were normalized using quantile normalization with adjustment based on the median intensity of probes with similar GC content (using Affymetrix Power Tools). Background correction was made using the antigenomic probes. Only probes targeting exons annotated from FAST DB v2016_1 transcripts were selected. Probes were considered as expressed if the DABG p-value ≤0.05 (Detection Above Background p-values were calculated using Affymetrix Power Tools) in more or equal than 60% of samples. Genes were considered as expressed if more or equal than 50% of their probes are expressed Minimum 4 selected probes were required to assess gene expression. If possible only high-specific probes were selected (i.e., not overlapping with repeat regions; not cross-hybridizing; and 40≤GC %≤60). In addition, if possible, only probes targeting constitutive gene regions were selected (i.e., targeting at least 75% of transcripts of a given gene). We performed a paired Student's t-test to compare gene intensities in the different biological replicates.
Analysis at the splicing level was first performed taking into account only exon probes (“EXON” analysis) in order to potentially detect new alternative events that could be differentially regulated (i.e., without taking into account known alternative events). Analysis at the splicing level was also performed by taking into account known patterns (“PATTERN” analysis) using the FAST DB splicing patterns annotation (i.e., for each gene, all possible splicing patterns were defined by comparing exon content of transcripts). All types of alternative events can be analyzed: Alternative first exons, alternative terminal exons, cassette exon, mutually exclusive exons, alternative 5′ donor splice site, alternative 3′-acceptor splice sites, intron retention, internal exon deletion and complex events corresponding to mix of several alternative event categories). “EXON” and “PATTERN” analyses were based on the splicing-index calculation. Results were considered statistically significant for uncorrected p-values ≤0.05 and fold-changes ≥2.0. Finally, significant results from “EXON” and “PATTERN” analyses were merged to obtain a single result list.
Unsupervised analysis. The PCA has been performed using “prcomp” function in R and the 2 first dimensions were plotted. The clustering has been performed using “dist” and “hclust” functions in R, using Euclidean distance and Ward agglomeration method. […]

[6] = 71 genes in term, UREC cells, 2 micromolar PGE1 vs non treated control
[7] = UREC cells, 2 micromolar PGE1 vs non treated control, regulation up

## O=C(O)COc1cccc(CN(Cc2ccc(-n3cccn3)cc2)S(=O)(=O)c2cccnc2)c1 [Lab1, taprenepag]
[1]
  virus replication (viral RNA): able to decrease virus replication
[2]
  effect on SARS-CoV-2 infection: significant effect
[3]
  expression of mRNA of ACE2: significantly reduce
  protein level of ACE2: significantly reduce
[4]
  expression of mRNA of ACE2: significantly reduce
  protein level of ACE2: significantly reduce

## CC#CCC(C)[C@H](O)/C=C/[C@@H]1[C@H]2C/C(=C/CCCC(=O)O)C[C@H]2C[C@H]1O (stereo partly shown) [Lab2, iloprost]
[2]
  effect on SARS-CoV-2 infection: significant effect

## CCCCC(C)(C)[C@H](O)/C=C/[C@H]1[C@H](O)CC(=O)[C@@H]1C/C=C\CCCC(=O)O [Lab3, 16-16-dimethyl-PGE2]
[2]
  effect on SARS-CoV-2 infection: significant effect

## CCCCC[C@H](O)CC[C@H]1[C@H](O)CC(=O)[C@@H]1CCCCCCC(=O)O [Lab4, 13,14-dihydro-PGE1]
[2]
  effect on SARS-CoV-2 infection: significant effect

## O=C1CC[C@H](/C=C/[C@@H](O)C(F)(F)c2ccccc2)N1CCCCCCc1nn[nH]n1 [Lab5, L902688]
[2]
  effect on SARS-CoV-2 infection: significant effect

## CCCCC[C@H](O)/C=C/[C@H]1[C@H](O)CC(=O)[C@@H]1CCCCCCC(=O)O [PGE1, Prostaglandin E1]
[5]; 5 genes in term, UREC cells, 2 micromolar PGE1 vs non treated control
  Nb Regulated Genes (Up/Down), GO:0009597 detection of virus: 3 (3/0)
[5]; 10 genes in term, UREC cells, 2 micromolar PGE1 vs non treated control
  Nb Regulated Genes (Up/Down), GO:0035455 response to interferon-alpha: 4 (4/0)
[5]; 14 genes in pathway, UREC cells, 2 micromolar PGE1 vs non treated control
  Nb Regulated Genes (Up/Down), R-HSA-918233 TRAF3-dependent IRF activation pathway: 4 (4/0)
[5]; 17 genes in pathway, UREC cells, 2 micromolar PGE1 vs non treated control
  Nb Regulated Genes (Up/Down), R-HSA-168928 RIG-I/MDA5 mediated induction of IFN-alpha/beta pathways: 6 (6/0)
[5]; 29 genes in term, UREC cells, 2 micromolar PGE1 vs non treated control
  Nb Regulated Genes (Up/Down), GO:0005164 tumor necrosis factor receptor binding: 6 (5/1)
[5]; 33 genes in pathway, UREC cells, 2 micromolar PGE1 vs non treated control
  Nb Regulated Genes (Up/Down), R-HSA-933541 TRAF6 mediated IRF7 activation: 4 (4/0)
[5]; 34 genes in pathway, UREC cells, 2 micromolar PGE1 vs non treated control
  Nb Regulated Genes (Up/Down), R-HSA-936440 Negative regulators of RIG-I/MDA5 signaling: 5 (5/0)
[5]; 40 genes in term, UREC cells, 2 micromolar PGE1 vs non treated control
  Nb Regulated Genes (Up/Down), GO:0045071 negative regulation of viral genome replication: 11 (11/0)
[5]; 64 genes in term, UREC cells, 2 micromolar PGE1 vs non treated control
  Nb Regulated Genes (Up/Down), GO:0060337 type I interferon signaling pathway: 20 (20/0)
[5]; 67 genes in pathway, UREC cells, 2 micromolar PGE1 vs non treated control
  Nb Regulated Genes (Up/Down), R-HSA-909733 Interferon alpha/beta signaling: 20 (20/0)
[5]; [6]
  Nb Regulated Genes (Up/Down), GO:0060333 interferon-gamma-mediated signaling pathway: 8 (8/0)
  Nb Regulated Genes (Up/Down), GO:0071347 cellular response to interleukin-1: 9 (5/4)
[5]; 73 genes in pathway, UREC cells, 2 micromolar PGE1 vs non treated control
  Nb Regulated Genes (Up/Down), R-HSA-1169408 ISG15 antiviral mechanism: 11 (11/0)
[5]; 88 genes in pathway, UREC cells, 2 micromolar PGE1 vs non treated control
  Nb Regulated Genes (Up/Down), R-HSA-877300 Interferon gamma signaling: 11 (11/0)
[5]; 110 genes in term, UREC cells, 2 micromolar PGE1 vs non treated control
  Nb Regulated Genes (Up/Down), GO:0009615 response to virus: 21 (19/2)
[5]; 165 genes in term, UREC cells, 2 micromolar PGE1 vs non treated control
  Nb Regulated Genes (Up/Down), GO:0051607 defense response to virus: 27 (25/2)
[5]; 379 genes in term, UREC cells, 2 micromolar PGE1 vs non treated control
  Nb Regulated Genes (Up/Down), GO:0006954 inflammatory response: 22 (12/10)
[5]; 421 genes in term, UREC cells, 2 micromolar PGE1 vs non treated control
  Nb Regulated Genes (Up/Down), GO:0006955 immune response: 26 (19/7)
[5]; 430 genes in term, UREC cells, 2 micromolar PGE1 vs non treated control
  Nb Regulated Genes (Up/Down), GO:0045087 innate immune response: 30 (27/3)
[5]; UREC cells, 2 micromolar PGE1 vs non treated control, regulation down
  Fold-Change BIRC3: 1.67
[5]; [7]
  Fold-Change BST2: 1.6
  Fold-Change DDX58: 2.76
  Fold-Change DHX58: 1.55
  Fold-Change EIF2AK2: 1.74
  Fold-Change EIF4E3: 1.72
  Fold-Change FAST DB STABLE ID GSHG0007017 (no gene symbol): 3.58
  Fold-Change FAST DB STABLE ID GSHG0007018 (no gene symbol): 1.93
  Fold-Change GBP2//GBP7: 1.62
  Fold-Change GBP4: 1.86
  Fold-Change HERC5: 2.37
  Fold-Change HLA-DRA: 1.86
  Fold-Change IFI6: 2.51
  Fold-Change IFI27: 1.57
  Fold-Change IFI35: 1.62
  Fold-Change IFIH1: 2.45
  Fold-Change IFIT1: 5.18
  Fold-Change IFIT2: 4.84
  Fold-Change IFIT3: 3.99
  Fold-Change IFITM1: 2.35
  Fold-Change IRF7: 1.88
  Fold-Change ISG15: 1.89
  Fold-Change MIR3614//TRIM25: 1.56
  Fold-Change MX1: 3.68
  Fold-Change MX2: 4.02
  Fold-Change OASL: 2.27
  Fold-Change RSAD2: 3.79
  Fold-Change SAMHD1: 1.89
  Fold-Change STAT1: 1.73
  Fold-Change TNFSF12//TNFSF12-TNFSF13//TNFSF13: 1.62
  Fold-Change TNFSF13B: 1.65
  Fold-Change TRIM14: 2.02
  Fold-Change USP18: 2.26
  Fold-Change XAF1: 1.82
[5]; UREC human cells
  expression of a major biological pathway related to viral infection and interferon signaling: significantly modifies
  fold changes of IFN related genes IFIT1, IFIT2 and IFIT3 (overexpressed): > 3
[5]; UREC human cells, doses from 0.2 to 10 microM
  induction of IFN related gene across doses tested: consistent
[3]
  expression of mRNA of ACE2: significantly reduce
  protein level of ACE2: significantly reduce
[4]
  expression of mRNA of ACE2: significantly reduce
  protein level of ACE2: significantly reduce
